# According to article PMC5864073, “A D-enantiomer of the antimicrobial peptide GL13K evades antimicrobial resistance in the Gram positive bacteria Enterococcus faecalis and Streptococcus gordonii” (PLoS ONE, 2018):
# Where a SMILES comes first, the peptide text is derived from it. [ ]: non-standard residue; d: D form.
# How the values were obtained:
# E. faecalis OG1RF [1] = experiment: Bactericidal activity in PBS+0.05% Triton X-100; format: cell-based, Enterococcus faecalis; settings: PBS+0.05% Triton X-100, peptide 100 mg/L, 2 h, CFU on THA, N = 5
# Experimental: (§1) The lysis assay followed an established protocol for bacterial autolysis with minor modifications. Exponentially growing cells were washed twice in PBS then washed once in ice-cold dH2O. The bacteria were incubated in PBS with 0.05% Triton X-100 and peptides at a concentration of 100 mg/L. OD600 was monitored spectrophotometrically for 180 min. In some experiments, the cells were incubated with the peptides for 2h in PBS+0.05% Triton X-100 and then cultured on THA to enumerate surviving cells.
# (§2) Fig 2 Effect of GL13K peptides on Triton X-100 induced autolysis. E. faecalis OG1RF (A) or the autolysis-deficient strain TX5128 (B) were incubated in PBS with 0.05% Triton X-100 in the absence of peptide (control) or in the presence of 100 mg/L of L-GL13K or D-GL13K (D). The OD600 was recorded for 180 min and expressed as a percent of starting OD600 of the control sample. (C): Bactericidal activity of GL13K peptides in PBS+0.05% Triton X-100. E. faecalis OG1RF were incubated with 0.05% Triton X-100 in the absence of peptide (Ctrl) or with L-GL13K or D-GL13K for 2h. Surviving CFU were enumerated and are shown as mean ± SEM (N = 5). Peptide treated samples were compared to the untreated control by Kruskal-Wallis test with Dunn’s multiple comparison post-test. n.s., not significant.
# E. faecalis OG1RF [2] = experiment: Triton X-100 induced bacterial autolysis assay; format: cell-based, Enterococcus faecalis; settings: PBS with 0.05% Triton X-100, peptide 100 mg/L, OD600 for 180 min
# Experimental: as §1, §2
# [3] = system: E. faecalis dltA mutant (TX5427); experiment: Selection for peptide resistance, serial MIC assays; format: cell-based, Enterococcus faecalis; settings: serial passage at 0.5 x MIC, L-GL13K after two rounds, D-GL13K after seven rounds, three experiments
# Experimental: (§3) To investigate potential resistance development against the GL13K peptides, dilutions of the peptides were prepared and incubated as described for the MIC assay. The next day (day 0), the MIC was recorded and the culture in the well with the highest peptide concentration that allowed growth (i.e 0.5 x MIC) was diluted 1:100 and used as an inoculum for the next round of selection in a new MIC assay and so forth until a stable plateau of resistance was reached.
# (§4) Fig 4 Development of resistance in E. faecalis. MICs for L-GL13K (circles) and D-GL13K (squares) were recorded on consecutive days using E. faecalis OG1RF (wild-type) (open symbols) (D-enantiomer only) and dltA (closed symbols). The MIC for each day is expressed relative to the starting MIC (day 0). Data from three experiments are shown as mean ± SEM.
# [4] = system: wild-type E. faecalis (OG1RF); experiment: as above; format: cell-based, Enterococcus faecalis; settings: serial passage at 0.5 x MIC
# Experimental: as §3, §4
# [5] = system: conditioned supernatant of protease-deficient E. faecalis (TX5128); experiment: Proteolysis of peptide by conditioned culture supernatant (P. aeruginosa Xen41 bioassay); format: in vitro ADME, Enterococcus faecalis; settings: conditioned sterile-filtered supernatant of protease-deficient E. faecalis TX5128, peptide 32 mg/L, 2 h, 37°C; bioluminescence read-out after 15 min; three independent experiments
# Experimental: To test proteolytic processing of GL13K peptides, overnight bacterial cultures were centrifuged (5 min, 13,000 g) and the conditioned supernatants were sterile-filtered (0.22 μm, Corning). Filtered supernatant (16.8 μl) was incubated with 3.2 μl (3.2 μg) peptide at 37°C for 2 h to allow bacterial proteases in the supernatant to process the peptide. To determine residual peptide activity, 70 μl of 10 mM sodium phosphate buffer, pH 7.4 was added to each sample and then supplemented with 10 μl (10^8 CFU) of bioluminescent Pseudomonas aeruginosa Xen41 (Caliper Lifesciences; now Perkin Elmer, MA) that had been washed three times in 0.9% NaCl (final maximal peptide concentration 32 mg/L). Viability of the indicator bacteria was determined after 15 min incubation at 37°C by determining bioluminescence in a Synergy HT plate reader. The luminescence detected in the absence of added peptide was used as a measure of 100% proteolysis.
# Fig 1 Relative proteolysis of GL13K peptides. (A): Wild-type (OG1RF) or the protease-negative strain (TX5128) of E. faecalis was cultured on THA containing 3% gelatin. Gelatinase activity was visualized as a turbid halo around the bacterial colonies; (B): L-GL13K (L) or D-GL13K (D) (32 mg/L) was incubated with conditioned supernatant of wild-type (OG1RF) or the protease-negative strain (TX5128) of E. faecalis for 2 h. Residual peptide activity was determined by adding bioluminescent P. aeruginosa Xen41 to the mixture. Bioluminescence from surviving bacteria was used as a measure of proteolytic degradation of each peptide and expressed relative to bacterial bioluminescence in the absence of peptides (equivalent to 100% proteolysis). Data are shown as mean ± SEM from three independent experiments and were analyzed by paired t-test for each strain. n.s., not significant.
# [6] = system: E. faecalis OG1RF dltA (TX5427) biofilm; experiment: Biofilm assay (Calgary device); format: cell-based, Enterococcus faecalis; settings: 24 h biofilm of OG1RF dltA, peptide 100 mg/L, 4 h, CFU relative to the wild-type biofilm
# Experimental: (§5) E. faecalis OG1RF, TX5427 or V583 were cultured in a Calgary device for 24h in THB. Biofilms were treated with peptides (100 mg/L) for 4h and surviving cells were sonicated and plated on THA for enumeration of CFUs.
# (§6) Fig 3 Effect of GL13K peptides on biofilms of E. faecalis. Twenty-four hour biofilms of OG1RF; OG1RF dltA or V583 were treated with 100 mg/L of L-GL13K (L) or D-GL13K (D). Surviving CFU were enumerated from each peg and expressed relative to the mean CFU recovered from pegs of wild-type cells treated with buffer alone (OG1RF—C). Data from 2–4 experiments are expressed as mean ± SEM (N = 6–13). V583 was only treated with D-GL13K.
# [7] = system: vancomycin-resistant E. faecalis V583 biofilm; experiment: Biofilm assay (Calgary device); format: cell-based, Enterococcus faecalis; settings: 24 h biofilm of V583, peptide 100 mg/L, 4 h, CFU enumerated
# Experimental: as §5, §6
# [8] = system: E. faecalis OG1RF biofilm; experiment: Biofilm assay (Calgary device); format: cell-based, Enterococcus faecalis; settings: 24 h biofilm of OG1RF, peptide 100 mg/L, 4 h, CFU enumerated
# Experimental: as §5, §6
# [9] = system: S. gordonii DL1 (wild-type); experiment: Selection for peptide resistance, serial MIC assays; format: cell-based, Streptococcus gordonii; settings: repeated treatment with sub-inhibitory concentrations, 2–3 experiments
# Experimental: as §3
# as §4, with “6” for “4”, “S. gordonii.” for “E. faecalis.”, “S. gordonii DL1” for “E. faecalis OG1RF”, “2–3” for “three”, “range.” for “SEM.”
# S. gordonii dltA mutant = experiment: as above; format: cell-based, Streptococcus gordonii; settings: repeated treatment with sub-inhibitory concentrations, 2–3 experiments
# Experimental: as §3
# as §4, with “6” for “4”, “S. gordonii.” for “E. faecalis.”, “S. gordonii DL1” for “E. faecalis OG1RF”, “2–3” for “three”, “range.” for “SEM.”
# wild-type E. faecalis = experiment: Bactericidal activity in sodium phosphate buffer; format: cell-based, Enterococcus faecalis; settings: 10^8 CFU/ml wild-type E. faecalis, no energy source, 10 mM sodium-phosphate pH 7.4, 2 h, 37°C, spotted on THA; D N = 4, L N = 3
# Experimental: These assays were performed according to our established protocol with some modifications. Cells were washed three times in 0.9% NaCl and five μl of washed cells (10^9 CFU/ml) were added to the peptides diluted 2-fold (128 to 4 mg/L) in 45 μl of 10 mM sodium-phosphate, pH 7.4. The samples were incubated at 37°C for 2 h and 10 μl were then spotted on THA plates to assess bactericidal activity.
compound,measurement,setting,value
CC[C@@H](C)[C@@H](NC(=O)[C@@H](CCCCN)NC(=O)CN)C(=O)N[C@@H](C(=O)N[C@H](CCCCN)C(=O)N[C@H](CC(C)C)C(=O)N[C@H](CCCCN)C(=O)N[C@H](C)C(=O)N[C@H](CO)C(=O)N[C@H](CC(C)C)C(=O)N[C@H](CCCCN)C(=O)N[C@H](CC(C)C)C(=O)N[C@H](CC(C)C)C(N)=O)[C@H](C)CC [D-GL13K] (H-G[dK][dI][dI][dK][dL][dK][dA][dS][dL][dK][dL][dL]-NH2; N-terminus and C-terminus assumed),Reduction of viable cells under autolysis conditions,E. faecalis OG1RF [1],3 log10
same,Effect on Triton X-100 induced autolysis (OD600),E. faecalis OG1RF [2],no autolysis was seen
same,Increase of MIC relative to starting MIC (day 0),[3],2 fold
same,Increase of MIC relative to starting MIC (day 0),[4],did not substantially increase the MIC
same,Proteolysis of peptide (loss of activity against bioluminescent P. aeruginosa Xen41),[5],did not show significant proteolysis
same,Reduction of viable biofilm CFU,[6],highly effective
same,Reduction of viable biofilm CFU,[7],3 log10
same,Reduction of viable biofilm CFU,[8],3 log10
same,Increase of MIC relative to starting MIC (day 0),[9],little change of the MIC
same,Increase of MIC relative to starting MIC (day 0),S. gordonii dltA mutant,little change of the MIC
same,Peptide concentration required for complete killing,wild-type E. faecalis,15 ± 10 mg/L
